Source: US12178981B2, “Drug administration method” (Takeda Pharmaceutical Company Limited, priority 2017, dated 2024)
One block for each compound: values may come before it.

Key:
brain tissue = settings: ddY mice; nano-bubbles (about 400 nm) and 5-FU in combination; brain tissue exposed to ultrasound; cited from earlier work
[1] = BBB permeation experiment of fluorescein using BBB Kit (Example 1); format: in vitro ADME; settings: rat, 2 hr, read-out: permeability coefficient (Papp)
Method: (§1) Using this D-PBS, fluorescein (fluorescein sodium manufactured by Wako Pure Chemical Industries, Code No. 213-00092) was dissolved to prepare a fluorescein stock solution.
(§2) The permeability coefficient (Papp) was calculated from the measured fluorescein concentration, and the intracerebral transferability of fluorescein (BBB permeability) was calculated.
(§3) • fluorescence wavelength: 520 nm • excitation wavelength: 480 nm • flash number: 6 times

BBB Kit™ (RBT-24H) [2] = experiment: as above; format: in vitro ADME; settings: nano-bubble water (PS80); ultrasound exposure at not less than 100 mW/cm^2
Method: as §1, §2, §3

[3] = BBB permeation experiment of fluorescein using BBB Kit, two nano-bubble waters (Example 4); format: in vitro ADME; settings: rat, 2 hr, read-out: permeability coefficient (Papp)
Method: (§4) In addition, the fluorescein stock solution and the nano-bubble water prepared in Reference Example 2 were diluted with D-PBS such that the fluorescein concentration was 1 μM and nano-bubble density was 2×10^8 bubbles to prepare a culture solution B (volume: 500 μL) (n=2).
as §2

BBB Kit™ (RBT-24H) [4] = experiment: as above; format: in vitro ADME; settings: culture medium A (Reference Example 1) and culture medium B (Reference Example 2); ultrasound exposure at not less than 100 mW/cm^2
Method: as §4, §2

BBB = BBB permeation experiment of FITC dextran using rat (Example 6); settings: ultrasound exposure using nano-bubble water of Reference Example 1
Method: The administration solution (0.4 mL) was injected into the rat tail vein at 1 mL/min using an injection tube and a needle of appropriate sizes (both sterilized disposable products). Using an ultrasound gene transfer apparatus (Sonitron GTS) manufactured by Nepa Gene Co., Ltd., exposure was performed for 60 sec at frequency 1 MHz and ultrasound intensity 2 W/cm^2 (n=3).
• fluorescence wavelength: 520 nm • excitation wavelength: 494 nm • flash number: 6 times

[5] = control: fluorescein 1 μM in D-PBS without nano-bubble water

Compound: O=c1[nH]cc(F)c(=O)[nH]1 [5-FU, fluorouracil]
duration for which transfer into the brain was observed (brain tissue): at least 24 hr

Papp at 2 h, 1 μM [1, 5]: 0.574 ×10⁻⁶ cm/s
Papp at 2 h, 1 μM ([1]; fluorescein 1 μM + nano-bubble water (PS80) 2×10^8 bubbles, ultrasound 100 mW/cm^2, 1 MHz, 10 sec): 11.2 ×10⁻⁶ cm/s
Papp at 2 h, 1 μM ([1]; fluorescein 1 μM + nano-bubble water (PS80) 2×10^8 bubbles, ultrasound 250 mW/cm^2, 1 MHz, 10 sec): 10.6 ×10⁻⁶ cm/s
Papp at 2 h, 1 μM ([1]; fluorescein 1 μM + nano-bubble water (PS80) 2×10^8 bubbles, ultrasound 500 mW/cm^2, 1 MHz, 10 sec): 12.7 ×10⁻⁶ cm/s
BBB permeability compared with the control (BBB Kit™ (RBT-24H) [2]): clear promotion of BBB permeability
Papp at 2 h, 1 μM [3, 5]: 1.79 ×10⁻⁶ cm/s
Papp at 2 h, 1 μM ([3]; culture medium A (Reference Example 1 nano-bubble water, 2×10^8 bubbles), fluorescein 1 μM, ultrasound 100 mW/cm^2, 1 MHz, 10 sec): 11.1 ×10⁻⁶ cm/s
BBB permeability compared with the control (BBB Kit™ (RBT-24H) [4]): clear promotion of BBB permeability
Compound: O=C1OC2(c3ccc(O)cc3Oc3cc(O)ccc32)c2ccccc21 [fluorescein, fluorescein sodium]

Compound: fluorescein isothiocyanate dextran [FITC dextran]
brain transferability compared with the control (BBB): promotion of brain transferability
